# Tests used:
# [1] = test system: axotomized murine DRG axons; experiment: Axonal degeneration (degeneration index) of transected axons; format: cell-based
# Method: (§1) The role of the DLK/LZK MAPK pathway in regulating NAD and SARM1 pathways of axonal degeneration was established. Its role in regulating levels of the NAD-synthesizing enzyme NMNAT2 after injury was explored by treating murine DRG axons with the DLK/LZK inhibitor GNE-3511 after axotomy.
# To assess the therapeutic potential of post-axotomy MAPK inhibition, axons were treated with GNE-3511 at different time points before or after axotomy (2 h pre-treatment, immediately after axotomy, 0 h, or 2 and 4 hours post-injury).
# Due to the different mechanism of action of MAPK and NAMPT inhibition, therapeutic synergy was further tested by treating axotomized axons with the MAPK inhibitor GNE at the time of injury and the NAMPT inhibitor FK866 at different time points (2, 4, 6 or 8 hours post injury).
# Transected axons were treated with the NAMPT inhibitor FK866 after injury and NaR was added concurrently or at 3, 6, 9, or 24 hours post axotomy. Statistical analysis of degeneration index was performed by two-way ANOVA for the effect of time (F(4,32)=62.77, p<0.0001), treatment (F(5,8)=17.05, p=0.0004), and their interactions (F(20,32)=16.82, p<0.0001) with Holm-Šidák's multiple comparisons. […] See FIG. 15 (error bars indicate +/−1 SEM).
# Transected axons were treated at the time of injury with the DLK inhibitor GNE-3511 or vehicle (DMSO) and with the combination of FK866/NaR either at the time of injury or with an 8-hour delay. […] Statistical analysis of degeneration index was performed by two-way ANOVA for the effect of time (F(2.143, 17.15)=49.43, p<0.0001), treatment (F(3,8)=9.58, p=0.005), and their interactions (F(18,48)=13.99, p<0.0001) with Holm-Šidák's multiple comparisons. […] See FIG. 16B (error bars indicate +/−1 SEM).
# [2] = test system: NAD+ pathway metabolites (NMN, NAD+, cADPR, Nam) in transected axons; experiment: Metabolite analysis of distal axons 8 hours post axotomy; format: cell-based
# Method: Axons were transected and treated with vehicle (DMSO), the NAMPT inhibitor FK866, or FK866+NaR. Axons were collected at 8 hours post axotomy for metabolite analysis. […] Statistically significant changes between treated and untreated transected axons were analyzed with one-way ANOVA and Holm-Šidák's multiple comparisons; *=p<0.05, **=p<0.01, ***=p<0.001, #=p<0.0001. Error bars indicate +/−1 SEM.
# Relative changes in protein-normalized levels of metabolites in distal axons were measured at 8 hours following transection and treatment at the time of injury with the MAPK inhibitor GNE-3511, the NAMPT inhibitor FK866 in combination with NaR, or with the three compounds together.
# [3] = test system: JNK, SCG10, NMNAT2 and α-Spectrin in murine DRG axons; experiment: Western blot of distal axons after axotomy; format: cell-based
# Method: as §1
# Western blot analysis of distal axons was performed at 4 and 8 hours after transection and treatment with the DLK inhibitor GNE3511 or vehicle (DMSO).
# [4] = in vivo; cited from earlier work
# [5] = test system: retinal ganglion cells (RGCs); experiment: Impact acceleration (IA) TBI model: RGC survival, SNCG staining of retinal whole-mounts; format: in vivo, mice; details: intraperitoneal 60 mg/kg, treatment 21 days after IA; vehicle 1500 cells/mm2; p<0.05
# Excerpt: Experimental subjects and IA procedures Eight-week-old male C57BL/6 J wild-type mice and transgenic Dlk^fl/fl and Dlk^fl/flLzk^fl/fl mice were subjected to IA or sham injury. Male mice were chosen such as to avoid the confounding effects of sex hormones on injury outcomes. Wild-type mice and founders were purchased from Charles River Laboratories (Wilmington, MA). Animals were housed in a vivarium with a 12-h light/12-h dark cycle and given ad libitum access to food and water. All animal handling as well as surgical and postoperative procedures were carried out according to protocols approved by the Animal Care and Use Committee of the Johns Hopkins Medical Institutions.
# Impact acceleration injury was performed with height weight settings generating kinetic energy of 0.45-0.5 Jupon impact, essentially as described (FIG. 21). Immediately prior to injury, the cranium was exposed and a 5 mm-thick stainless-steel disc was glued onto the skull midway between bregma and lambda sutures. Surgical procedures and injury were performed under aseptic conditions with gas anesthesia (isoflurane:oxygen:nitrous oxide=1:33:66). Immediately after injury the disc was removed the skull was checked under the surgical microscope for skull fractures. The rare animals with skull fractures were excluded from further study because such events introduce injuries variables that cannot be easily controlled. […]
# [6] = GNE vs FK+NaR and vs FK+NaR+GNE
# [7] = treatment immediately after axotomy
smiles,measurement,setting,value
O=C(/C=C/c1cccnc1)NCCCCC1CCN(C(=O)c2ccccc2)CC1 [FK866],protection from axonal degeneration,"[1]; in the absence of GNE-3511, added 2, 4, 6 or 8 hours post injury",provided protection especially when added at 2 hours
same,protection from axonal degeneration,"[1]; with GNE-3511 at the time of injury, FK-866 added 2, 4, 6 or 8 hours post injury","enhanced at 2, 4 and 6 hours post injury"
same,NAD+ degrading activity (cADPR/NAD+) relative to vehicle,[2],suppressed the NAD+ degrading activity
same,NAD+/NMN ratio compared to vehicle,[2],increases
same,NMN/Nam ratio compared to vehicle,[2],reductions
same,cADPR levels relative to vehicle,[2],only the combined treatment suppressed cADPR levels
same,NAD+ levels compared to vehicle treated transected axons,[2]; treatment at time of injury,protects NAD+ levels
same,NMN levels compared to vehicle treated transected axons,[2]; treatment at time of injury,suppressed NMN
N#Cc1ccnc(Nc2cc(C3CCN(C4COC4)CC3)cc(N3CCC(F)(F)C3)n2)c1 [GNE-3511],protection from axonal degeneration,[1]; applied before (2 h pre-treatment) or immediately following injury (0 h),Significant protection
same,protection from axonal degeneration,[1]; more delayed regimes (2 and 4 hours post-injury),lesser protection
same,"cADPR/NAD+ ratio, difference vs FK+NaR",[2],significant differences
same,"NAD+/NMN ratio, difference between treatment groups",[2]; [6],significant differences
same,"Nam/NAD+ ratio, difference between treatment groups",[2]; [6],significant differences
same,NAD+ levels compared to FK+NaR or the triple combination,[2]; treatment at time of injury,greater protection of NAD+ levels
same,injury associated degradation of SCG10,[3]; 4 and 8 hours after transection,suppressed the injury associated degradation of SCG10
same,phosphorylation of JNK,"[3]; 4 hours after transection, vs vehicle (DMSO), n=3",suppressed phosphorylation of JNK
same,injury associated degradation of spectrin (p150 fragment to total spectrin),[3]; 8 hours after transection,suppressed
same,degradation of NMNAT2 between 4 and 8 hours post-axotomy,[3]; significantly degraded in vehicle treated axons,not in the presence of GNE
same,calpain-mediated degradation of α-Spectrin,[3]; [7],ameliorated the calpain-mediated degradation
same,degradation of NMNAT2,[3]; [7],reduced the degradation
same,phosphorylation of SCG10,[3]; [7],reduced phosphorylation
same,phosphorylation of the downstream JNKs,[3]; [7],reduced phosphorylation
"NC(=O)c1ccc[n+]([C@@H]2O[C@H](CO)[C@@H](O)[C@H]2O)c1 [NaR, nicotinamide riboside]",axon protection (degeneration index) compared to FK866 alone,"[1]; NaR added 3, 6 or 9 hours post-axotomy in the presence of FK866, up to 4 days post-injury, p<0.0001",significantly protected axons
same,axon protection (degeneration index) compared to FK866 alone,[1]; NaR added at 24 hours in the presence of FK866,no additive effect
same,delay of NaR supplementation after axotomy with minimal and/or no loss of efficacy in suppressing axon fragmentation,[1]; in the presence of FK866 given after injury,up to 9 hours
CCN(CC)CCNC(=O)c1c(C)[nH]c(/C=C2\C(=O)Nc3ccc(F)cc32)c1C [sunitinib],CNS penetration,[4],penetrates the CNS
same,number of surviving RGCs,[5],~2300 cells/mm2
